Where two headings read alike, the source gives them in different places.
How the values were obtained:
[1] = biological target: ROCK2 (Homo sapiens (Human), UniProt O75116); assay: ROCK assay (LABCHIP peptide phosphorylation), ROCK2; format: biochemical; settings: 5 μM ATP, 1.5 μM peptide substrate
[2] = biological target: ROCK1 (Homo sapiens (Human), UniProt Q13464); assay: ROCK assay (LABCHIP peptide phosphorylation), ROCK1; format: biochemical
[3] = 5 μM ATP, 1.5 μM peptide substrate, read-out: ROCK1 IC50

Sequence of ROCK2 (O75116 whole entry, species assumed): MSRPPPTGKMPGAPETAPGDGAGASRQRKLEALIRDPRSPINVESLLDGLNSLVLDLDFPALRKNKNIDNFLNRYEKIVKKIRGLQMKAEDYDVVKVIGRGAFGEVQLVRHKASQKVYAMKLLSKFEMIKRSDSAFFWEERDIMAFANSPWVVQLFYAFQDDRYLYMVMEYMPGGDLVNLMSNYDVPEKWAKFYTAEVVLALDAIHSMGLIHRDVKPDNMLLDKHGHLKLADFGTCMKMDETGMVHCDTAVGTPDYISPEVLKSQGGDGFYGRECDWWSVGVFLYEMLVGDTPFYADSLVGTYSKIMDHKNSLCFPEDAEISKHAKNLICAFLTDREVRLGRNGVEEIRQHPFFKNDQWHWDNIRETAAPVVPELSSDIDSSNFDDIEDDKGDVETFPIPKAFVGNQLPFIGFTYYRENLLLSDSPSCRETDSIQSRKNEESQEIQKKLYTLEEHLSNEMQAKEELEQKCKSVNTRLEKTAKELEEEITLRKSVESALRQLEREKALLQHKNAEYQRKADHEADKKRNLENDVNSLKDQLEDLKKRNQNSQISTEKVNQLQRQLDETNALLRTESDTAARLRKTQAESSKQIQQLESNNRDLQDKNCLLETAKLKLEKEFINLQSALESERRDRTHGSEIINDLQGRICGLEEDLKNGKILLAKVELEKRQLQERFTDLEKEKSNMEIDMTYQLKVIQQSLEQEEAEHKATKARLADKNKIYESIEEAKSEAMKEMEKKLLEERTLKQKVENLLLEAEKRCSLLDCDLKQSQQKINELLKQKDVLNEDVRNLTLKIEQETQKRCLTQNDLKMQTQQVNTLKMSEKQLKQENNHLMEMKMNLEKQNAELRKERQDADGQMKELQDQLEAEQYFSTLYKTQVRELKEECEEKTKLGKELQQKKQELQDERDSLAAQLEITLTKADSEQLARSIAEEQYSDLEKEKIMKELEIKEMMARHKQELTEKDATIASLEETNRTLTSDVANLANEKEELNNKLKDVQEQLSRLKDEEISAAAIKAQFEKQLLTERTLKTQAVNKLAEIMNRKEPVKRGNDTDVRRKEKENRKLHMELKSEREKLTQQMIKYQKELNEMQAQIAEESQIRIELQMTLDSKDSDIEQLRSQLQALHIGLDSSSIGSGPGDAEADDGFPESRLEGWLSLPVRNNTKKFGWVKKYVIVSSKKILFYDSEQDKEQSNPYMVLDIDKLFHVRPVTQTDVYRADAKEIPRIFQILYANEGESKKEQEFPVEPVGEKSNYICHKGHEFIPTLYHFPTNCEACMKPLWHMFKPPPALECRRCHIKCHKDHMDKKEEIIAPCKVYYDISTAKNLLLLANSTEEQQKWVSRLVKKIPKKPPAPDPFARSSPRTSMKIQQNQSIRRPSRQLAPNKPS
Sequence of ROCK1 (Q13464 whole entry, species assumed): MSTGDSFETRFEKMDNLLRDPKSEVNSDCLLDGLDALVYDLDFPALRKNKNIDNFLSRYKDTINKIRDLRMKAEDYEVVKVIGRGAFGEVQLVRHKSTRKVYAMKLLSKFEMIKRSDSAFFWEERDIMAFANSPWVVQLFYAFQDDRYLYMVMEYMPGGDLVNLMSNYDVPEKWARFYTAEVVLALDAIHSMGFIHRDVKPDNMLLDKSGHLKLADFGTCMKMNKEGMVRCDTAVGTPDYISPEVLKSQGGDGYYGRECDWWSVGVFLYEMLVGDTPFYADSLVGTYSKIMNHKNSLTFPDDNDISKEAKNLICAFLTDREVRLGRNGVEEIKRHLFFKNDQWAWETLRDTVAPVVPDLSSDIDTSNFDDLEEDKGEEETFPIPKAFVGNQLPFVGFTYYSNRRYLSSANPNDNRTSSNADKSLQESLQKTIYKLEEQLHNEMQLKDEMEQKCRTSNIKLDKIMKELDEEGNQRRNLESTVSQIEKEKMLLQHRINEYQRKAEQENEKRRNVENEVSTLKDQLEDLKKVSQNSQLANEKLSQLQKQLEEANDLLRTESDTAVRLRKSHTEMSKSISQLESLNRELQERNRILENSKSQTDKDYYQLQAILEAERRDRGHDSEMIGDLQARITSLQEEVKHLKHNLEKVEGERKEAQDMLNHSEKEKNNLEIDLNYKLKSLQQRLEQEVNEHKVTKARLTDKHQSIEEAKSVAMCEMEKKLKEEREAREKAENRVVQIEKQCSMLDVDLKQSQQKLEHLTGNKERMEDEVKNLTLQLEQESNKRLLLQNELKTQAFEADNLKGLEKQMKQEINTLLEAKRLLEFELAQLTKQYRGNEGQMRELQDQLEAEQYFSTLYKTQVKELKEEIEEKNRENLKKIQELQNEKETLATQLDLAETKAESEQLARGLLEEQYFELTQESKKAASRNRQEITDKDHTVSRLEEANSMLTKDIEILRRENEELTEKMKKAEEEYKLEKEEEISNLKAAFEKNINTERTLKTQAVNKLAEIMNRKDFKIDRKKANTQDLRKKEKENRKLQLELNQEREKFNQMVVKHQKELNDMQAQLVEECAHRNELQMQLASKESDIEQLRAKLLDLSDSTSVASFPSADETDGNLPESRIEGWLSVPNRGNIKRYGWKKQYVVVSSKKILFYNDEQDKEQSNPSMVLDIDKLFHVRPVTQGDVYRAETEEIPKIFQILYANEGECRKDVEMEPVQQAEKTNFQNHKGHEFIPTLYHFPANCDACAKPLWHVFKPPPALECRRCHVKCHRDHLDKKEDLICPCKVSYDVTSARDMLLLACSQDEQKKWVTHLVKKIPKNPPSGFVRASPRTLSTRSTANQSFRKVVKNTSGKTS

Compound	IC50 [1] [nM]	IC50 [2, 3] [nM]	IC50 [2] [nM]
O=C(Cc1ccc(-c2n[nH]c(=O)c3ccccc23)cc1)NC1CCC1 [Example 19, N-cyclobutyl-2-[4-(4-oxo-3,4-dihydrophthalazin-1-yl)phenyl]acetamide]	1000 to 50000	1000 to 50000	
Cc1ccc(N2CC(C(=O)Nc3ccc(-c4n[nH]c(=O)c5ccccc45)cc3)CC2=O)cc1 (stereo not drawn) [Example 210, 1-(4-methylphenyl)-5-oxo-N-[4-(4-oxo-3,4-dihydrophthalazin-1-yl)phenyl]pyrrolidine-3-carboxamide]	101 to 1000	101 to 1000	
Cc1cc(NC(=O)c2c[nH]c3ncc(F)cc23)ccc1-c1n[nH]c(=O)c2ccccc12 [Example 308, 5-fluoro-N-[3-methyl-4-(4-oxo-3,4-dihydrophthalazin-1-yl)phenyl]-1H-pyrrolo [2,3-b]pyridine-3-carboxamide]	0.1 to 100	0.1 to 100	
O=C(Cc1ccc(-c2n[nH]c(=O)c3ccccc23)cc1)N1CCN(c2ncccn2)CC1 [Example 15, 4-(4-{2-oxo-2-[4-(pyrimidin-2-yl)piperazin-1-yl]ethyl}phenyl)-1,2-dihydrophthalazin-1-one]	1000 to 50000	1000 to 50000	
O=C(Cc1ccc(-c2n[nH]c(=O)c3ccccc23)cc1)N1CCc2ccc(OCc3ccncc3)cc21 [Example 272, 4-(4-{2-oxo-2-[6-(pyridin-4-ylmethoxy)-2,3-dihydro-1H-indol-1-yl]ethyl}phenyl)-1,2-dihydrophthalazin-1-one]	0.1 to 100	0.1 to 100	
O=C(Cc1ccc(-c2n[nH]c(=O)c3ccccc23)cc1)Nc1nc2ccccc2[nH]1 [Example 9, N-(1H-1,3-benzodiazol-2-yl)-2-[4-(4-oxo-3,4-dihydrophthalazin-1-yl)phenyl]acetamide]	0.1 to 100	1000 to 50000	
O=C(Cc1ccc(-c2n[nH]c(=O)c3ccccc23)cc1)N1CCc2ccc(OCc3cccnc3)cc21 [Example 270, 4-(4-{2-oxo-2-[6-(pyridin-3-ylmethoxy)-2,3-dihydro-1H-indol-1-yl]ethyl}phenyl)-1,2-dihydrophthalazin-1-one]	0.1 to 100	0.1 to 100	
CC(C)(C)OC(=O)N1CC(Cn2nc(C(=O)Nc3ccc(-c4n[nH]c(=O)c5ccccc45)c(Cl)c3)c3ccccc32)C1 [Example 316, tert-butyl 3-[(3-{[3-chloro-4-(4-oxo-3,4-dihydrophthalazin-1-yl)phenyl]carbamoyl}-1H-indazol-1-yl)methyl] azetidine-1-carboxylate]	0.1 to 100	101 to 1000	
O=C(Nc1ccc(-c2n[nH]c(=O)c3ccccc23)cc1)c1cnn(C2CCOC2)c1 (stereo not drawn) [Example 390, N-(4-(4-Oxo-3,4-dihydrophthalazin-1-yl)phenyl)-1-(tetrahydrofuran-3-yl)-1H-pyrazole-4-carboxamide]	0.1 to 100	101 to 1000	
O=C(Nc1ccc(-c2n[nH]c(=O)c3ccccc23)cc1)c1nn(CC2CNC2)c2ccccc12 [Example 338, 1-(Azetidin-3-ylmethyl)-N-(4-(4-oxo-3,4-dihydrophthalazin-1-yl)phenyl)-1H-indazole-3-carboxamide]	101 to 1000	0.1 to 100	
CN(C)c1ccc(C(=O)Nc2ccc(-c3n[nH]c(=O)c4ccccc34)cc2)cc1 [Example 58, 4-(dimethylamino)-N-[4-(4-oxo-3,4-dihydrophthalazin-1-yl)phenyl]benzamide]	0.1 to 100	0.1 to 100	
CCOc1ccc2c(c1)cc(C(=O)Nc1ccc(-c3n[nH]c(=O)c4ccccc34)cc1)n2C [Example 130, 5-ethoxy-1-methyl-N-[4-(4-oxo-3,4-dihydrophthalazin-1-yl)phenyl]-1H-indole-2-carboxamide]	0.1 to 100	0.1 to 100	
O=C(Nc1ccc(-c2n[nH]c(=O)c3ccccc23)cc1)c1nn(CC2CCOC2)c2ccccc12 (stereo not drawn) [Example 146, N-[4-(4-oxo-3,4-dihydrophthalazin-1-yl)phenyl]-1-(oxolan-3-ylmethyl)-1H-indazole-3-carboxamide]	0.1 to 100	0.1 to 100	
CN1CC[C@@H](Oc2ccc3c(c2)N(C(=O)Cc2ccc(-c4n[nH]c(=O)c5ccccc45)cc2)CC3)C1 [Example 277, 4-{4-[2-(6-{[(3R)-1-methylpyrrolidin-3-yl]oxy}-2,3-dihydro-1H-indol-1-yl)-2-oxoethyl]phenyl}-1,2-dihydrophthalazin-1-one]	0.1 to 100	101 to 1000	
O=C(Cc1ccc(-c2c[nH]c(=O)c3ccccc23)cc1)N1Cc2ccccc2C1 [Example 38, 4-(4-(2-(Isoindolin-2-yl)-2-oxoethyl)phenyl)isoquinolin-1(2H)-one]	0.1 to 100	101 to 1000	
O=C(Nc1ccc(-c2n[nH]c(=O)c3ccccc23)cc1)c1cnn([C@H]2C[C@@H]3CC[C@H]2C3)c1 [Example 393, 1-((1S,2S,4R)-Bicyclo[2.2.1]heptan-2-yl)-N-(4-(4-oxo-3,4-dihydrophthalazin-1-yl)phenyl)-1H-pyrazole-4-carboxamide]	0.1 to 100	0.1 to 100	
CCOc1ccc2oc(C)c(C(=O)Nc3ccc(-c4n[nH]c(=O)c5ccccc45)cc3)c2c1 [Example 100, 5-ethoxy-2-methyl-N-[4-(4-oxo-3,4-dihydrophthalazin-1-yl)phenyl]-1-benzofuran-3-carboxamide]	0.1 to 100	0.1 to 100	

Compound	IC50 [1] [nM]	IC50 [2, 3] [nM]	IC50 [2] [nM]
CC(O)COc1ccn2ncc(C(=O)Nc3ccc(-c4n[nH]c(=O)c5ccccc45)cc3)c2c1 (stereo not drawn) [Example 185, 5-(2-hydroxypropoxy)-N-[4-(4-oxo-3,4-dihydrophthalazin-1-yl)phenyl]pyrazolo[1 5-a]pyridine-3-carboxamide]	0.1 to 100	0.1 to 100	
Cn1c(C(=O)Nc2ccc(-c3n[nH]c(=O)c4ccccc34)cc2)cc2ccccc21 [Example 90, 1-methyl-N-[4-(4-oxo-3,4-dihydrophthalazin-1-yl)phenyl]-1H-indole-2-carboxamide]	0.1 to 100	101 to 1000	
N-[4-(4-oxo-3,4- dihydrophthalazin-1- yl)phenyl]-1-[3- ylmethyl]-1H-indazole- 3-carboxamide [Example 170]	0.1 to 100	0.1 to 100	
CN1CC(=O)c2c(C(=O)Nc3ccc(-c4n[nH]c(=O)c5ccccc45)cc3)coc2C1 [Example 111, 6-methyl-4-oxo-N-[4-(4-oxo-3,4-dihydrophthalazin-1-yl)phenyl]-4H,5H,6H,7H-furo[2,3-c]pyridine-3-carboxamide]	101 to 1000	101 to 1000	
CC(C)(O)Cn1nc(C(=O)Nc2ccc(-c3n[nH]c(=O)c4ccccc34)cc2O)c2ccccc21 [Example 353, 1-(2-Hydroxy-2-methylpropyl)-N-(2-hydroxy-4-(4-oxo-3,4-dihydrophthalazin-1-yl)phenyl)-1H-indazole-3-carboxamide]	0.1 to 100	101 to 1000	
CN1CCN(Cc2ccc3c(c2)CN(C(=O)Oc2ccc(-c4n[nH]c(=O)c5ccccc45)cc2)C3)CC1 [Example 72, 4-(4-Oxo-3,4-dihydrophthalazin-1-yl)phenyl 5-((4-methylpiperazin-1-yl)methyl)isoindoline-2-carboxylate]	0.1 to 100		101 to 1000
Cc1nn(-c2ccccc2)cc1C(=O)Nc1ccc(-c2n[nH]c(=O)c3ccccc23)cc1 [Example 228, 3-methyl-N-[4-(4-oxo-3,4-dihydrophthalazin-1-yl)phenyl]-1-phenyl-1H-pyrazole-4-carboxamide]	0.1 to 100	0.1 to 100	
O=C(Nc1ccc(-c2n[nH]c(=O)c3ccccc23)cc1)c1cc2cc(Cl)cnc2[nH]1 [Example 119, 5-chloro-N-[4-(4-oxo-3,4-dihydrophthalazin-1-yl)phenyl]-1H-pyrrolo[2,3-b]pyridine-2-carboxamide]	0.1 to 100	101 to 1000	
Cc1csc(C(=O)Nc2ccc(-c3n[nH]c(=O)c4ccccc34)cc2)n1 [Example 50, 4-methyl-N-[4-(4-oxo-3,4-dihydrophthalazin-1-yl)phenyl]-1,3-thiazole-2-carboxamide]	0.1 to 100	0.1 to 100	
O=C(Nc1ccc(-c2n[nH]c(=O)c3ccccc23)cc1)c1cnn(C2COC2)c1 [Example 389, 1-(Oxetan-3-yl)-N-(4-(4-oxo-3,4-dihydrophthalazin-1-yl)phenyl)-1H-pyrazole-4-carboxamide]	0.1 to 100	101 to 1000	
CC(C)(O)Cn1cc(C(=O)Nc2ccc(-c3n[nH]c(=O)c4ccccc34)cc2)c2ccccc21 [Example 138, 1-(2-hydroxy-2-methylpropyl)-N-[4-(4-oxo-3,4-dihydrophthalazin-1-yl)phenyl]-1H-indole-3-carboxamide]	0.1 to 100	0.1 to 100	
O=C(Nc1ccc(-c2n[nH]c(=O)c3ccccc23)cc1)c1cnn(CCCN2CCCC2)c1 [Example 399, N-(4-(4-Oxo-3,4-dihydrophthalazin-1-yl)phenyl)-1-(3-(pyrrolidin-1-yl)propyl)-1H-pyrazole-4-carboxamide]	101 to 1000	101 to 1000	
COc1cccc(-n2cc(C(=O)Nc3ccc(-c4n[nH]c(=O)c5ccccc45)cc3)nn2)c1 [Example 404, 1-(3-Methoxyphenyl)-N-(4-(4-oxo-3,4-dihydrophthalazin-1-yl)phenyl)-1H-1,2,3-triazole-4-carboxamide]	0.1 to 100	0.1 to 100	
CN(C)c1cccc(C(=O)Nc2ccc(-c3c[nH]c(=O)c4ccccc34)cc2)c1 [Example 244, 3-(Dimethylamino)-N-[4-(1-oxo-1,2-dihydroisoquinolin-4-yl)phenyl]benzamide]	0.1 to 100	0.1 to 100	
Cn1c(C(=O)Nc2ccc(-c3n[nH]c(=O)c4ccccc34)cc2)cc2cc(Cl)ccc21 [Example 96, 5-chloro-1-methyl-N-[4-(4-oxo-3,4-dihydrophthalazin-1-yl)phenyl]-1H-indole-2-carboxamide]	0.1 to 100	101 to 1000	
Cc1cc(NC(=O)c2nn(CC3CCOCC3)c3ccccc23)ccc1-c1n[nH]c(=O)c2ccccc12 [Example 313, N-[3-methyl-4-(4-oxo-3,4-dihydrophthalazin-1-yl)phenyl]-1-(oxan-4-ylmethyl)-1H-indazole-3-carboxamide]	0.1 to 100	0.1 to 100	
